Here are results for 4 compounds from patent publication US8513307B2, “N-phenylacetamide inhibitors of the enzyme SOAT-1 and pharmaceutical/cosmetic compositions comprised thereof” (Galderma Research & Development, priority 2007, dated 2013).

This assay concerns the target T1, enzyme ACAT-1 (Homo sapiens, UniProt P35610).
T1 construct: endogenous in cells; host or cells: HepG2
T1 sequence (P35610 1-550): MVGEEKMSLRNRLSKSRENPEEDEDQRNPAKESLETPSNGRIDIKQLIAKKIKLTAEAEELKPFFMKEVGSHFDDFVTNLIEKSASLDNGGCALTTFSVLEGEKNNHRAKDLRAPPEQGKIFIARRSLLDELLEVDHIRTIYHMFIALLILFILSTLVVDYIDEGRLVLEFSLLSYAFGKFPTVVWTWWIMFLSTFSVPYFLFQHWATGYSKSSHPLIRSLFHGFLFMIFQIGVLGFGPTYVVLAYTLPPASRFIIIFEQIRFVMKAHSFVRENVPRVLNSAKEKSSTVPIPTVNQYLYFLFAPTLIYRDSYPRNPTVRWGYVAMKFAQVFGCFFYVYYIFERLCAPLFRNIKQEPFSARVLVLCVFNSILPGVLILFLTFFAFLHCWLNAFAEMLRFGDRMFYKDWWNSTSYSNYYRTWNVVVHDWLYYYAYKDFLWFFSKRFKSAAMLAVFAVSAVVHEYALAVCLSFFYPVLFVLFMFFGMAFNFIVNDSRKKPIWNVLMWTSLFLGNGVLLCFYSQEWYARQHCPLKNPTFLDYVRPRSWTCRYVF
In words: primary enzymatic test HepG2: NBD-cholesterol fluorescence test of inhibitory action on ACAT-1 (SOAT-1). Format: cell-based. To be noted: HepG2 cells, NBD-cholesterol 1 μg/ml, incubation 6 h at 37° C., fluorescence excitation 490 nm, emission 540 nm. Here is the method:
The compounds (I) according to the invention, as well as their pharmaceutically acceptable salts, solvates and/or hydrates, have inhibitory properties on the enzyme SOAT-1. This inhibitory activity on the enzyme SOAT-1 is measured according to a primary enzymatic test HepG2, as described in Example 16.
The compounds of formula (I) according to the invention were subjected to a test allowing their inhibitory action to be evaluated with respect to the enzyme ACAT-1 inspired by the following publication: “Identification of ACAT1- and ACAT2-specific inhibitors using a novel, cell-based fluorescence assay: individual ACAT uniqueness”, J. Lipid. Res (2004) vol 45, pages 378-386. The principle of this test is based on the employment of NBD-cholesterol, an analogue of cholesterol whose fluorescence depends on its environment. When this is present in a polar environment, it is weakly fluorescent although in a nonpolar environment it is strongly fluorescent. Free NBD-cholesterol locates itself in the cell membranes and is weakly fluorescent in this polar environment. When the NBD-cholesterol is esterified by ACAT, the ester of NBD-cholesterol locates itself in the nonpolar lipid droplets and is in that case strongly fluorescent.
The method below is applied: The HepG2 cells are incubated in the presence of NBD-cholesterol (1 μg/ml) and of the compound of formula (I) to be tested in black 96-well plates with a transparent base at a rate of 30 000 cells per well. After incubation for 6 h at 37° C., under 5% CO2, the medium is eliminated by turning over and the cells are washed with 2 times 100 μl of PBS. After addition of 50 μl of lysis buffer (NaPO4 10 mM, Igepal 1%), the plates are stirred for 5 min and read in fluorescence (excitation 490 nm, emission 540 nm) on a FUSION apparatus (Perkin-Elmer).

Each structure is given as a SMILES string.

The term IC50 denotes the concentration needed to halve the response being measured. Turning to `CC(C)c1cccc(C(C)C)c1NC(=O)CN1CC2(CCCCC2)N(c2ccccc2)C1=O` [I.1, N-(2,6-Diisopropylphenyl)-2-(2-oxo-1-phenyl-1,3-diazaspiro[4.5]dec-3-yl)-acetamide], the midpoint of inhibition, the IC50, lay at 5.4 nM.
In the case of `Cc1ccc(N2C3(CCCCC3)CN(CC(=O)Nc3c(C(C)C)cccc3C(C)C)S2(=O)=O)cc1` [I.5, N-(2,6-Diisopropylphenyl)-2-(2,2-dioxo-1-p-tolyl-2lambda*6*-thia-1,3-di-azaspiro[4.5]dec-3-yl)acetamide] it was 3.2 nM.
For the compound `CCc1ccc(N2C(=O)N(CC(=O)Nc3c(C(C)C)cccc3C(C)C)CC23CCCCC3)cc1` [I.9, N-(2,6-Diisopropylphenyl)-2-[1-(4-ethylphenyl)-2-oxo-1,3-diazaspiro-[4.5]dec-3-yl]acetamide], half-maximal inhibition (IC50) was put at 7.1 nM.
Next, `CCC1(CC)CN(CC(=O)Nc2c(C(C)C)cccc2C(C)C)C(=O)N1c1ccc(C)cc1` [I.13, 2-(4,4-Diethyl-2-oxo-3-p-tolylimidazolidin-1-yl)-N-(2,6-diisopropylphenyl)-acetamide]: 0.9 nM.
